Assay results as given in PubChem BioAssay (NCI).
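Each compound was tested at five concentrations against cells in 96-well plates for 48 hours. GI50 = concentration required for 50% inhibition of growth. TGI denotes the concentration required for complete inhibition of growth.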

Experiments:
Experiment in all cases: NCI-60 cell line screen, 48 h
HOP-62 NSCLC = system: HOP-62 NSCLC
CAKI-1 renal = system: CAKI-1 renal
K-562 leukemia = system: K-562 leukemia
HCC-2998 colon = system: HCC-2998 colon
TK-10 renal = system: TK-10 renal
SK-MEL-5 melanoma = system: SK-MEL-5 melanoma
SF-295 CNS = system: SF-295 CNS
SR leukemia = system: SR leukemia
RPMI-8226 leukemia = system: RPMI-8226 leukemia
HS 578T breast = system: HS 578T breast
KM12 colon = system: KM12 colon
HOP-92 NSCLC = system: HOP-92 NSCLC
HCT-15 colon = system: HCT-15 colon
SK-MEL-28 melanoma = system: SK-MEL-28 melanoma
RXF 393 renal = system: RXF 393 renal
MDA-MB-468 breast = system: MDA-MB-468 breast
SK-OV-3 ovarian = system: SK-OV-3 ovarian
NCI/ADR-RES ovarian = system: NCI/ADR-RES ovarian
HCT-116 colon = system: HCT-116 colon
MDA-MB-435 = system: MDA-MB-435
M14 melanoma = system: M14 melanoma
MCF7 breast = system: MCF7 breast
HL-60(TB) leukemia = system: HL-60(TB) leukemia
EKVX NSCLC = system: EKVX NSCLC
NCI-H226 lung = system: NCI-H226 lung
786-0 renal = system: 786-0 renal
SF-539 CNS = system: SF-539 CNS
IGROV1 ovarian = system: IGROV1 ovarian
SW-620 colon = system: SW-620 colon
COLO 205 colon = system: COLO 205 colon
NCI-H23 lung = system: NCI-H23 lung
BT-549 breast = system: BT-549 breast
SF-268 CNS = system: SF-268 CNS
CCRF-CEM leukemia = system: CCRF-CEM leukemia
T-47D breast = system: T-47D breast
A498 renal = system: A498 renal
LOX IMVI melanoma = system: LOX IMVI melanoma
SNB-19 CNS = system: SNB-19 CNS
A549 NSCLC = system: A549 NSCLC
ACHN renal = system: ACHN renal
UACC-257 melanoma = system: UACC-257 melanoma
HT29 colon = system: HT29 colon
OVCAR-8 ovarian = system: OVCAR-8 ovarian
OVCAR-5 ovarian = system: OVCAR-5 ovarian
UACC-62 melanoma = system: UACC-62 melanoma
MOLT-4 leukemia = system: MOLT-4 leukemia
NCI-H522 lung = system: NCI-H522 lung
PC-3 prostate = system: PC-3 prostate
OVCAR-4 ovarian = system: OVCAR-4 ovarian
DU-145 prostate = system: DU-145 prostate
MALME-3M melanoma = system: MALME-3M melanoma
OVCAR-3 ovarian = system: OVCAR-3 ovarian
U251 CNS = system: U251 CNS
NCI-H460 lung = system: NCI-H460 lung
SN12C renal = system: SN12C renal

For `CC(C)C[C@H](NC(=O)CNC(=O)C[C@H]1O[C@@H]2OC3(C)CC[C@H]4[C@H](C)CC[C@@H]([C@H]1C)[C@@]24OO3)B(O)O`, the GI50 (HOP-62 NSCLC) was 3.05 µM, the TGI (HOP-62 NSCLC) was 14.7 µM and the GI50 (CAKI-1 renal) was 24.3 µM. The TGI (CAKI-1 renal) was > 65 µM, the GI50 (K-562 leukemia) was 1.92 µM and the TGI (K-562 leukemia) was > 65 µM. For the same compound, the GI50 (HCC-2998 colon) was 1.17 µM, the TGI (HCC-2998 colon) was 2.21 µM and the GI50 (TK-10 renal) was 2.34 µM. It also gave a TGI (TK-10 renal) of 51.4 µM, a GI50 (SK-MEL-5 melanoma) of 1.09 µM and a TGI (SK-MEL-5 melanoma) of 2.27 µM. The GI50 (SF-295 CNS) was 2.17 µM, the TGI (SF-295 CNS) was 9.46 µM and the GI50 (SR leukemia) was 0.188 µM. The TGI (SR leukemia) was 0.805 µM, the GI50 (RPMI-8226 leukemia) was 0.184 µM and the TGI (RPMI-8226 leukemia) was 0.604 µM. For the same compound, the GI50 (HS 578T breast) was 1.91 µM, the TGI (HS 578T breast) was > 65 µM and the GI50 (KM12 colon) was 1.67 µM. It also gave a TGI (KM12 colon) of 4.45 µM, a GI50 (HOP-92 NSCLC) of 1.5 µM and a TGI (HOP-92 NSCLC) of 4.9 µM. The GI50 (HCT-15 colon) was 5.52 µM, the TGI (HCT-15 colon) was 16.5 µM and the GI50 (SK-MEL-28 melanoma) was 0.716 µM. For the same compound, the TGI (SK-MEL-28 melanoma) was 3.37 µM, the GI50 (RXF 393 renal) was 0.162 µM and the TGI (RXF 393 renal) was 0.556 µM. For the same compound, the GI50 (MDA-MB-468 breast) was 0.341 µM, the TGI (MDA-MB-468 breast) was 1.56 µM and the GI50 (SK-OV-3 ovarian) was 4.13 µM. For the same compound, the TGI (SK-OV-3 ovarian) was 38.2 µM, the GI50 (NCI/ADR-RES ovarian) was 55.3 µM and the TGI (NCI/ADR-RES ovarian) was > 65 µM. The GI50 (HCT-116 colon) was 0.437 µM, the TGI (HCT-116 colon) was 1.75 µM and the GI50 (MDA-MB-435) was 0.275 µM. It also gave a TGI (MDA-MB-435) of 1.69 µM, a GI50 (M14 melanoma) of 1.24 µM and a TGI (M14 melanoma) of 3.46 µM. The GI50 (MCF7 breast) was 0.349 µM, the TGI (MCF7 breast) was > 65 µM and the GI50 (HL-60(TB) leukemia) was 0.21 µM. For the same compound, the TGI (HL-60(TB) leukemia) was 4.62 µM, the GI50 (EKVX NSCLC) was 5.95 µM and the TGI (EKVX NSCLC) was > 65 µM. It also gave a GI50 (NCI-H226 lung) of 0.455 µM, a TGI (NCI-H226 lung) of 1.5 µM and a GI50 (786-0 renal) of 3.32 µM. For the same compound, the TGI (786-0 renal) was > 65 µM, the GI50 (SF-539 CNS) was 0.37 µM and the TGI (SF-539 CNS) was 1.54 µM. It also gave a GI50 (IGROV1 ovarian) of 2.69 µM, a TGI (IGROV1 ovarian) of 13.8 µM and a GI50 (SW-620 colon) of 0.437 µM. It also gave a TGI (SW-620 colon) of 8.24 µM, a GI50 (COLO 205 colon) of 2.64 µM and a TGI (COLO 205 colon) of 13.8 µM. For the same compound, the GI50 (NCI-H23 lung) was 1.68 µM, the TGI (NCI-H23 lung) was 8.45 µM and the GI50 (BT-549 breast) was 0.261 µM. The TGI (BT-549 breast) was 1.22 µM, the GI50 (SF-268 CNS) was 2.39 µM and the TGI (SF-268 CNS) was > 65 µM. For the same compound, the GI50 (CCRF-CEM leukemia) was 0.251 µM, the TGI (CCRF-CEM leukemia) was 2.74 µM and the GI50 (T-47D breast) was 0.771 µM. For the same compound, the TGI (T-47D breast) was 2.93 µM, the GI50 (A498 renal) was 5.48 µM and the TGI (A498 renal) was > 65 µM. It also gave a GI50 (LOX IMVI melanoma) of 0.753 µM, a TGI (LOX IMVI melanoma) of 1.68 µM and a GI50 (SNB-19 CNS) of 3.44 µM. For the same compound, the TGI (SNB-19 CNS) was > 65 µM, the GI50 (A549 NSCLC) was 3.03 µM and the TGI (A549 NSCLC) was > 65 µM. For the same compound, the GI50 (ACHN renal) was 4.75 µM, the TGI (ACHN renal) was > 65 µM and the GI50 (UACC-257 melanoma) was 0.818 µM. For the same compound, the TGI (UACC-257 melanoma) was 2.14 µM, the GI50 (HT29 colon) was 0.983 µM and the TGI (HT29 colon) was 3.46 µM. The GI50 (OVCAR-8 ovarian) was 1.99 µM, the TGI (OVCAR-8 ovarian) was 8.04 µM and the GI50 (OVCAR-5 ovarian) was 1.68 µM. It also gave a TGI (OVCAR-5 ovarian) of 10.3 µM, a GI50 (UACC-62 melanoma) of 0.958 µM and a TGI (UACC-62 melanoma) of 2.21 µM. The GI50 (MOLT-4 leukemia) was 0.267 µM, the TGI (MOLT-4 leukemia) was 5.19 µM and the GI50 (NCI-H522 lung) was 0.531 µM. The TGI (NCI-H522 lung) was 1.67 µM, the GI50 (PC-3 prostate) was 2.52 µM and the TGI (PC-3 prostate) was 57.8 µM. For the same compound, the GI50 (OVCAR-4 ovarian) was 3.04 µM, the TGI (OVCAR-4 ovarian) was > 65 µM and the GI50 (DU-145 prostate) was 7.32 µM. For the same compound, the TGI (DU-145 prostate) was > 65 µM, the GI50 (MALME-3M melanoma) was 0.719 µM and the TGI (MALME-3M melanoma) was 2.79 µM. It also gave a GI50 (OVCAR-3 ovarian) of 0.583 µM, a TGI (OVCAR-3 ovarian) of 3.12 µM and a GI50 (U251 CNS) of 2.39 µM. The TGI (U251 CNS) was 14.5 µM, the GI50 (NCI-H460 lung) was 3.54 µM and the TGI (NCI-H460 lung) was 18.9 µM. For the same compound, the GI50 (SN12C renal) was 1.92 µM and the TGI (SN12C renal) was 7.92 µM.
